# Legend:
# [1] = system: children with hypochondroplasia; parameters: species or system human; conditions: in vivo
# Description: The study has 3 prespecified co-primary outcomes: 1. To evaluate the safety and tolerability of daily subcutaneous injections of vosoritide administered for 12 months in patients with selected genetic causes of short stature, 2. To evaluate the change from baseline in age-sex standardized annualized growth velocity after 12 months of daily SC injections of vosoritide in patients with selected genetic causes of short stature, and 3. To evaluate the change from baseline in age-sex standardized height SDS after 12 months of daily SC injections of vosoritide in patients with selected genetic causes of short stature. Annualized growth velocity was standardized using data from the First Zurich Longitudinal Study of Growth and Development[9] as it includes growth velocity data starting at age 2.5 years. Height SDS was calculated using the United States CDC growth charts.[8] Hypochondroplasia specific height SDS was calculated using recently published hypochondroplasia growth curves.[10] To measure these outcomes, the following 3 co-primary endpoints were specified: 1. The incidence of adverse events per participant, 2. The change from baseline in age-sex standardized annualized growth velocity after 12 months of treatment, and 3. The change from baseline in age-sex standardized height SDS after 12 months of treatment. Height was measured five times at each study visit on a wall-mounted calibrated Harpenden stadiometer. The average of all five values was used. Safety assessments included routine laboratory evaluations at each visit, baseline and Month 12 echocardiograms, electrocardiograms at each visit, vital signs measurements, and spine X-rays at Day 1 and Month 12. No formal power calculations were done for this proof of principle study. Sample size was determined based on logistical feasibility. Medication adherence was calculated using the number of returned empty vials divided by the number of days of prescribed therapy. Demographics and clinical characteristics were summarized with mean and standard deviation (SD), median and interquartile (IQR) for numerical variables, frequency and proportion for categorical variables. Primary and secondary clinical outcomes were summarized with mean (SD) for the 6-month observation period and the 12-month treatment period. Paired t-tests were carried out to compare the difference between the treatment and observation periods. The corresponding p-value and 95% confidence interval (CI) were reported. Box and whisker plots were used for both primary endpoints (annualized growth velocity and height SDS) and exploratory endpoints (CXM and cGMP) to visualize the trends for the change from baseline to each of the follow-up visits. Safety data (AEs) were summarized as count and percentage of patients as well as the number of total occurrences per each listed AE for the observation period and the treatment period, respectively. As exploratory analyses, the primary endpoints were stratified based on age, baseline growth velocity and baseline height SDS. The summaries of mean (SD) for each visit, mean differences between treatment and observation periods, and the corresponding p-value and 95% CI were all reported. Parent reported quality of life using the […] scale was also reported with a similar tabular format. Data were analyzed using SAS for Windows version 9.4 (SAS Institute Inc., Cary, NC). A two-sided test with a significance level of 0.05 was used for all hypothesis tests.
# [2] = system: children with achondroplasia; conditions: cited from earlier work
# Description: Vosoritide is a c-type natriuretic peptide (CNP) analog that upon binding its receptor on chondrocytes inhibits the mitogen-activated protein kinase (MAPK) pathway. This pathway is downstream of FGFR3 and is activated in hypochondroplasia and achondroplasia. […] Based on this study and additional trials, vosoritide has now been approved in numerous countries for use in children ... || The standing height SDS increased by 0.37 SD during the year of treatment or 0.41 SD using hypochondroplasia specific growth charts. This is slightly greater than the 0.27 SD increase seen in the Phase 3 study of children with achondroplasia. In prior studies with children with achondroplasia, the increase in growth velocity and gains in height SDS have persisted over multiple years.[16]^,[17] Participants in the current study with positive responses to therapy have been enrolled in an ongoing extension study to assess if this will be true in hypochondroplasia as well. It is reassuring that th ...
# [3] = system: rat chondrosarcoma cells transfected with FGFR3 containing the hypochondroplasia mutation; conditions: addition of vosoritide; similar to achondroplasia mutation; n=3; ref unpublished BioMarin data; cited from earlier work
# Description: The rationale for using vosoritide in hypochondroplasia is primarily an extension of the positive clinical trial results in patients with achondroplasia, a more severe perturbation of the same gen ...
# [4] = system: subjects of trials to date; conditions: in vivo; cited from earlier work
# Description: We will perform a single arm, open‐ label, Phase I/II study of vosoritide in patients with the selected genetic causes of short stature identified above.
sequence,measurement,setting,value
PGQEHPNARKYKGANKKGLSKGCFGLKLDRIGSMSGLGC (disulfide) [vosoritide],Abdominal pain: # of patients,[1],5
same,Abdominal pain: # of total occurrences,[1],15
same,Abdominal pain: % of patients,[1],20.8%
same,Any injection site reaction (overall): # of patients,[1],20
same,Any injection site reaction (overall): # of total occurrences,[1],329
same,Any injection site reaction (overall): % of patients,[1],83.3%
same,Assay for drug induced anti-platelet antibodies,[1],negative
same,Cough: # of patients,[1],12
same,Cough: # of total occurrences,[1],20
same,Cough: % of patients,[1],50.0%
same,Diarrhea: # of patients,[1],2
same,Diarrhea: # of total occurrences,[1],3
same,Diarrhea: % of patients,[1],8.3%
same,Discontinuation due to a treatment related adverse event,[1],No participants discontinued treatment
same,Dizziness: # of patients,[1],3
same,Dizziness: # of total occurrences,[1],4
same,Dizziness: % of patients,[1],12.5%
same,Ear infection: # of patients,[1],2
same,Ear infection: # of total occurrences,[1],2
same,Ear infection: % of patients,[1],8.3%
same,Epistaxis: # of patients,[1],3
same,Epistaxis: # of total occurrences,[1],3
same,Epistaxis: % of patients,[1],12.5%
same,Fever: # of patients,[1],13
same,Fever: # of total occurrences,[1],29
same,Fever: % of patients,[1],54.2%
same,Headache: # of patients,[1],6
same,Headache: # of total occurrences,[1],17
same,Headache: % of patients,[1],25.0%
same,Injection site bruising: # of patients,[1],6
same,Injection site bruising: # of total occurrences,[1],20
same,Injection site bruising: % of patients,[1],25.0%
same,Injection site erythema: # of patients,[1],13
same,Injection site erythema: # of total occurrences,[1],113
same,Injection site erythema: % of patients,[1],54.2%
same,Injection site pain: # of patients,[1],7
same,Injection site pain: # of total occurrences,[1],61
same,Injection site pain: % of patients,[1],29.2%
same,Injection site swelling: # of patients,[1],13
same,Injection site swelling: # of total occurrences,[1],116
same,Injection site swelling: % of patients,[1],54.2%
same,Injection site urticaria: # of patients,[1],7
same,Injection site urticaria: # of total occurrences,[1],19
same,Injection site urticaria: % of patients,[1],29.2%
same,Laceration: # of patients,[1],3
same,Laceration: # of total occurrences,[1],3
same,Laceration: % of patients,[1],12.5%
same,Nasopharyngitis: # of patients,[1],2
same,Nasopharyngitis: # of total occurrences,[1],2
same,Nasopharyngitis: % of patients,[1],8.3%
same,Other Grade 3 or higher adverse events,[1],no other Grade 3 or higher adverse events
same,Rash maculo-papular: # of patients,[1],2
same,Rash maculo-papular: # of total occurrences,[1],2
same,Rash maculo-papular: % of patients,[1],8.3%
same,Rhinorrhea: # of patients,[1],6
same,Rhinorrhea: # of total occurrences,[1],6
same,Rhinorrhea: % of patients,[1],25.0%
same,Scoliosis: # of patients,[1],3
same,Scoliosis: # of total occurrences,[1],3
same,Scoliosis: % of patients,[1],12.5%
same,Severity and outcome of injection site reactions,[1],grade 1 or 2 and self-resolved
same,Symptomatic hypotension,[1],no episodes of symptomatic hypotension
same,Syncope,[1],One participant
same,Upper respiratory tract infection: # of patients,[1],2
same,Upper respiratory tract infection: # of total occurrences,[1],2
same,Upper respiratory tract infection: % of patients,[1],8.3%
same,Vomiting: # of patients,[1],11
same,Vomiting: # of total occurrences,[1],18
same,Vomiting: % of patients,[1],45.8%
same,Adjusted mean difference in annualized growth velocity,"[2]; Phase 3, placebo-controlled, children with achondroplasia, 15 μg/kg/day",1.57 cm/year
same,Increase in standing height SDS,[2]; Phase 3 study of children with achondroplasia,0.27 SD
same,ERK1/2 activation,[3],decrease ERK1/2 activation
same,Serious hypersensitivity reactions,[4],no serious hypersensitivity reactions
same,Subjects having some form of injection site reaction,[4],~ 85%
same,Subjects with an event of hypotension in study 111-205,[4],3.3%
same,Subjects with hypotension documented on vital sign measurement,[4],~ 45%

# From PMC11133798, “Vosoritide treatment for children with hypochondroplasia: a phase 2 trial” (eClinicalMedicine, 2024)
